What all share (format): cell membranes, Membrane
The target of experiment [1] is Dopamine receptor. The experiment in a line: Inhibition of [3H]spiroperidol binding to dopamine receptor from rat striatum membranes.
Experiment [2] concerns the target Adrenergic receptor alpha. Put plainly: Inhibition of [3H]WB-4101 binding to alpha adrenergic receptor from rat cerebral cortical membranes.
The target of experiment [3] is Adrenergic receptor beta (Rattus norvegicus, UniProt P18090+P10608+P26255). Put plainly: Inhibition of [3H]dihydroalprenolol binding to Beta adrenergic receptor from rat cerebral cortical membranes.

In general, Ki refers to the dissociation constant of the complex between target and ligand, obtained from inhibition or displacement. A high value points to lower affinity. Turning to `COc1ccc(CC2NCCc3cc(OC)c(O)cc32)cc1O` (configuration not stated), the Ki was determined as 3.8 µM in experiment [1], 7.5 µM in experiment [2] and 4 µM in experiment [3].

With `COc1cc2c(cc1O)C(Cc1ccc(O)c(O)c1)NCC2` (configuration not stated), the Ki worked out at 4.5 µM in experiment [1], 7.5 µM in experiment [2] and 0.2 µM in experiment [3].

With `Oc1ccc(C[C@H]2NCCc3cc(O)c(O)cc32)cc1O`, the figures for the Ki in experiment [1], in experiment [2] and in experiment [3] were 35 µM, 25 µM and 30 µM, respectively.

In the case of `Oc1cc(Br)c(CC2NCCc3cc(O)c(O)cc32)cc1O` (configuration not stated), the figures for the Ki in experiment [1], in experiment [2] and in experiment [3] were 1.5 µM, 0.5 µM and 40 µM, respectively.

As to `COc1cc(CC2(C(=O)O)NCCc3cc(O)c(O)cc32)ccc1O` (configuration not stated), the Ki in experiment [1], in experiment [2] and in experiment [3] was above 100 µM throughout.

Take `O=C(O)C1(Cc2ccc(O)c(O)c2)NCCc2cc(O)c(O)cc21` (configuration not stated): the Ki in experiment [1], in experiment [2] and in experiment [3] was above 100 µM each time.

In the case of `COc1ccc(C[C@H]2NCCc3cc(OC)c(O)cc32)cc1O`, the Ki turned out to be 30 µM in experiment [1], 10 µM in experiment [2] and 30 µM in experiment [3].

Regarding `Oc1ccc(CC2NCCc3cc(O)c(O)cc32)cc1O` (configuration not stated), the inhibition constant Ki in experiment [1] was 10 µM; in experiment [2] it was 40 µM; in experiment [3] it was 0.3 µM.

For the compound `COc1cc(CC2NCCc3cc(O)c(O)cc32)ccc1O` (configuration not stated), the Ki in experiment [1] was 5 µM; in experiment [2], 4.5 µM; in experiment [3], 0.5 µM.

Take `Oc1ccc(C[C@@H]2NCCc3cc(O)c(O)cc32)cc1O`: the Ki in experiment [1] was 2 µM; in experiment [2] it was 5 µM; in experiment [3], 0.3 µM.

As for `COc1ccc(C[C@@H]2NCCc3cc(OC)c(O)cc32)cc1O`, the results for the inhibitory constant (Ki) in experiment [1], in experiment [2] and in experiment [3] were 1.5 µM, 5 µM and 1.3 µM, respectively.

As for `COc1ccc(CC2NCCc3cc(OC)c(OC)cc32)cc1OC` (configuration not stated) [TETRAHYDROPAPAVERINE], the Ki in experiment [2] worked out at 10 µM; in experiment [3], 1 µM.

As to `COc1cc(C[C@@H]2NCCc3cc(O)c(O)cc32)cc(OC)c1OC` [TRETOQUINOL], the Ki was 5 µM in experiment [1] and 10 µM in experiment [2].
